In brackets after ≈: the same amount, converted by molar mass. Structures can show the parent of a compound that is named as a salt.
Tested on: B16 melanoma cells
Test: in vitro inhibitory activity on tumor cell growth, B16 melanoma cells (Test Example 2)
Format: cell-based
Conditions: 72 h; B16 mouse melanoma cells, 37° C., 3 days, 5% CO2; concentration for 50% growth inhibitory effect; read-out: IC50 (anti-tumor activity)
Procedure: The anticancer activity of each compound will be described. […] This test was carried out by measuring an in vitro inhibitory activity on tumor cell growth. That is to say, the B16 melanoma cells of a mouse were planted on a culture plate having 96 cells, and a compound was then added after one day and the cells were cultured at 37° C. for 3 days in 5% CO2. Next, a compound concentration (IC50) necessary to accomplish a 50% growth inhibitory effect was determined in accordance with a procedure described in Cancer. Res., Vol. 48, p. 589-601 (1988). The unit of the drug concentration was μg/ml. The result of distamycin is also simultaneously shown as a comparative example.

`Cn1cc(NC(=O)c2cc(NC(=O)c3cc(NC=O)cn3C)cn2C)cc1C(=O)NCCC(=N)N` [Distamycin, distamycin, reference compound] gave an IC50 of 36 µg/mL (≈ 74.8 µM).

Same assay, conditions: B16 mouse melanoma cells, 37° C., 3 days, 5% CO2; concentration for 50% growth inhibitory effect

`N=C(N)NCCCC(=O)Nc1cccc(-c2nc3cc(C(=O)Nc4ccc(N(CCCl)CCCl)cc4)ccc3[nH]2)c1` [Compound 2011, 1H-2-[3-[4-(guanidino)butyryl]amino]phenyl]benzimidazole-5-[N-[4-[N,N-bis(2-chloroethyl)amino)phenyl]]carboxyamide dihydrochloride] and `N=C(N)NCC(=O)Nc1cccc(-c2nc3cc(C(=O)Nc4ccc(N(CCCl)CCCl)cc4)ccc3[nH]2)c1` [Compound 2001, 1H-2-[3-(guanidinoacetylamino)phenyl]benzimidazole-5-[N-[4-[N,N-bis(2-chloroethyl)amino)phenyl]]carboxyamide dihydrochloride] are within 1.5-fold of each other in “IC50 (anti-tumor activity)” value: 0.97 µg/mL for the first, 0.82 µg/mL for the second.

`O=C(CCN1CCOCC1)Nc1cccc(-c2nc3cc(C(=O)Nc4ccc(N(CCCl)CCCl)cc4)ccc3[nH]2)c1` [Compound 2051, 1H-2-[3-[(3-morpholinopropionyl)amino]phenyl]benzimidazole-5-[N-[4-[N,N-bis(2-chloroethyl)amino]phenyl]]carboxyamide hydrochloride] and `Cc1cc(NC(=O)c2ccc3[nH]c(-c4cccc(NC(=O)CCN5CCOCC5)c4)nc3c2)ccc1N(CCCl)CCCl` [Compound 2053, 1H-2-[3-[(3-morpholinopropionyl)amino]phenyl]benzimidazole-5-[N-[4-[N,N-bis(2-chloroethyl)]amino-3-methyl]phenyl]carboxyamide hydrochloride] are within 1.5-fold of each other in “IC50 (anti-tumor activity)” value: 0.49 µg/mL for the first, 0.33 µg/mL for the second.

Compared with `N=C(N)CCNC(=O)c1ccc2[nH]c(-c3cccc(NC(=O)CCCc4ccc(N(CCCl)CCCl)cc4)c3)nc2c1` [Compound 47, 1H-2-[3-[[4-[4-[N,N-bis(2-chloroethyl)amino]phenyl]butyryl]amino]phenyl]benzimidazole-5-[N-(2-amidinoethyl]carboxyamide hydrochloride], `N=C(N)CCNC(=O)c1ccc2[nH]c(-c3ccc(NC(=O)CCCc4ccc(N(CCCl)CCCl)cc4)cc3)nc2c1` [Compound 2, 1H-2-[4-[[4-[4-[N,N-bis(2-chloroethyl)amino]phenyl]butyryl]amino]phenyl]benzimidazole-5-[N-(2-amidinoethyl]carboxyamide hydrochloride] is 1.5-fold higher in “IC50 (anti-tumor activity)” value: 0.38 µg/mL for the first, 0.58 µg/mL for the second.

First: Cc1cc(NC(=O)c2ccc3[nH]c(-c4cccc(NC(=O)CC[S+](C)C)c4)nc3c2)ccc1N(CCCl)CCCl.[I-] [Compound 2044, 2-[N-[3-[5-[N-[3-methyl-4-[N,N-bis(2-chloroethyl)amino]phenyl]carbamoyl]-1Hbenzimidazole-2-yl]phenyl]]carbamoylethyl-dimethylsulfonium iodide]
Second: C[S+](C)CCC(=O)Nc1cccc(-c2nc3cc(C(=O)Nc4ccc(N(CCCl)CCCl)c(Cl)c4)ccc3[nH]2)c1 [Compound 2046, 2-[N-[3-[5-[N-[3-chloro-4-[N,N-bis(2-chloroethyl)amino]phenyl]carbamoyl]-1H-benzimidazole-2-yl]phenyl]carbamoylethyl]dimethylsulfonium iodide]
The “IC50 (anti-tumor activity)” value of the first is 1.8-fold higher: 0.72 µg/mL for the first, 0.39 µg/mL for the second.

Compared with `N=C(N)NCC(=O)Nc1ccc(-c2nc3cc(C(=O)Nc4ccc(N(CCCl)CCCl)cc4)ccc3[nH]2)cc1` [Compound 1001, 1H-2-[4-(guanidinoacetylamino)phenyl]benzimidazole-5-[N-[4-[N,N-bis(2-chloroethyl)amino)phenyl]]carboxyamide dihydrochloride], `N=C(N)NCC(=O)Nc1ccc(-c2nc3cc(C(=O)Nc4cccc(N(CCCl)CCCl)c4)ccc3[nH]2)cc1` [Compound 1010, 1H-2-[4-(guanidinoacetylamino)phenyl]benzimidazole-5-[N-[3-[N,N-bis(2-chloroethyl)amino]phenyl]]carboxyamide] is 8.9-fold higher in “IC50 (anti-tumor activity)” value: 0.36 µg/mL for the first, 3.19 µg/mL (≈ 5.62 µM) for the second.

First: Cc1cc(NC(=O)c2ccc3[nH]c(-c4cccc(NC(=O)Cc5cccnc5)c4)nc3c2)ccc1N(CCCl)CCCl [Compound 2063, 1H-2-[3-(3-pyridylacetylamino)phenyl]benzimidazole-5-[N-[3-methyl-4-[N,N-bis(2-chloroethyl)amino]phenyl]]carboxyamide]
Second: Cc1cc(NC(=O)c2ccc3[nH]c(-c4cccc(NC(=O)CNC(=N)N)c4)nc3c2)ccc1N(CCCl)CCCl [Compound 2004, 1H-2-[3-(guanidinoacetylamino)phenyl]benzimidazole-5-[N-[3-methyl-4-[N,N-bis(2-chloroethyl)amino]phenyl]]carboxyamide dihydrochloride]
The “IC50 (anti-tumor activity)” value of the first is 6.6-fold higher: 3.48 µg/mL (≈ 5.79 µM) for the first, 0.53 µg/mL for the second.

Going from `CN(C)CCCC(=O)Nc1cccc(-c2nc3cc(C(=O)Nc4ccc(N(CCCl)CCCl)cc4)ccc3[nH]2)c1` [Compound 2031, 1H-2-[3-[[4-(dimethylamino)butyryl]amino]phenyl]benzimidazole-5-[N-[4-[N,N-bis(2-chloroethyl)amino)phenyl]]carboxyamide dihydrochloride] to `C[S+](C)CCC(=O)Nc1cccc(-c2nc3cc(C(=O)Nc4ccc(N(CCCl)CCCl)cc4)ccc3[nH]2)c1` [Compound 2041, 2-[N-[3-[5-[N-[4-[N,N-bis(2-chloroethyl)amino]phenylnyl]carbamoyl]-1H-benzimidazole-2-yl]phenyl]]carbamoylethyl-dimethylsulfonium iodide], the “IC50 (anti-tumor activity)” value falls from 1.56 µg/mL to 0.37 µg/mL (4.2-fold).

Compared with `N=C(N)NCC(=O)Nc1cccc(-c2nc3cc(C(=O)Nc4ccc(N(CCCl)CCCl)c(Cl)c4)ccc3[nH]2)c1` [Compound 2006, 1H-2-[3-(guanidinoacetylamino)phenyl]benzimidazole-5-[N-[3-chloro-4-[N,N-bis(2-chloroethyl)amino]phenyl]]carboxyamide dihydrochloride], `N=C(N)NCCCC(=O)Nc1cccc(-c2nc3cc(C(=O)Nc4ccc(N(CCCl)CCCl)c(Cl)c4)ccc3[nH]2)c1` [Compound 2016, 1H-2-[3-[[4-(guanidino)butyryl]amino]phenyl]benzimidazole-5-[N-[3-chloro-4-[N,N-bis(2-chloroethyl)amino]phenyl]]carboxyamide dihydrochloride] is 3.2-fold higher in “IC50 (anti-tumor activity)” value: 0.65 µg/mL for the first, 2.08 µg/mL for the second.

First: CN(C)CCCNC(=O)c1ccc2[nH]c(-c3ccc(NC(=O)CCCc4ccc(N(CCCl)CCCl)cc4)cc3)nc2c1 [Compound 29, 1H-2-[4-[[4-[4-[N,N-bis(2-chloroethyl)amino]phenyl]butyryl]amino]phenyl]benzimidazole-5-[N-[3-(dimethylamino)propyl]]carboxyamide]
Second: Cc1cc(NC(=O)c2ccc3[nH]c(-c4cccc(NC(=O)CCCNC(=N)N)c4)nc3c2)ccc1N(CCCl)CCCl [Compound 2014, 1H-2-[3-[[4-(guanidino)butyryl]amino]phenyl]benzimidazole-5-[N-[3-methyl-4-[N,N-bis(2-chloroethyl)amino]phenyl]]carboxyamide dihydrochloride]
The “IC50 (anti-tumor activity)” value of the first is 2.6-fold higher: 3.05 µg/mL (≈ 4.89 µM) for the first, 1.18 µg/mL for the second.

For `O=C(CCN1CCOCC1)Nc1cccc(-c2nc3cc(C(=O)Nc4ccc(N(CCCl)CCCl)c(Cl)c4)ccc3[nH]2)c1` [Compound 2054, 1H-2-[3-[(3-morpholinopropionyl)amino]phenyl]benzimidazole-5-[N-[3-chloro-4-[N-bis(2-chloroethyl)amino]phenyl]]carboxyamide hydrochloride], the “IC50 (anti-tumor activity)” value was 0.41 µg/mL.

Tested on: mouse colon cancer cells of Colon 26
Test: Anti-tumor test in mice implanted with Colon 26 cells, tumor weight on 15th day (Test Example 3)
Format: in vivo
Conditions: 10 mg/kg, tail vein on 1st day; Colon 26 s.c. in female CDF1 mouse; tumor weight on 15th day vs control 100%
Procedure: A cell floating solution having 1×10^7 mouse colon cancer cells of Colon 26 per ml of HBSS (Hanks' Balanced Salt Solution) was prepared. Next, 0.1 ml of this cell floating solution was implanted in the side abdomen hypodermis of a female CDFl mouse (0 day). On the day after the tumor implantation (1st day), the weight of the mouse was measured, and a solution of a compound (a 5% glucose solution containing 5% Tween 80) was administered into the tail vein of the mouse. On the 15th day, the tumor was extracted, and its weight was then measured.
An average tumor weight ratio of each experimental sample was calculated as a T/C value on the assumption that the average tumor weight ratio of a control to which any compound was not administered was 100%.
The T/C values correspond to compound numbers, respectively, and each value in the parentheses represents the concentration of the drug at the time when its T/C value was obtained.

With `N=C(N)NCC(=O)Nc1cccc(-c2nc3cc(C(=O)Nc4ccc(N(CCCl)CCCl)c(Cl)c4)ccc3[nH]2)c1` [Compound 2006, 1H-2-[3-(guanidinoacetylamino)phenyl]benzimidazole-5-[N-[3-chloro-4-[N,N-bis(2-chloroethyl)amino]phenyl]]carboxyamide dihydrochloride] the T/C was 21%.

Same assay, conditions: 20 mg/kg, tail vein on 1st day; Colon 26 s.c. in female CDF1 mouse; tumor weight on 15th day vs control 100%

`COc1cccc2c1C(=O)c1c(O)c3c(c(O)c1C2=O)C[C@@](O)(C(=O)CO)C[C@@H]3O[C@H]1C[C@H](N)[C@H](O)[C@H](C)O1` [Adriamycin, adriamycin, reference compound] showed a T/C of 29%.

Same assay, conditions: 30 mg/kg, tail vein on 1st day; Colon 26 s.c. in female CDF1 mouse; tumor weight on 15th day vs control 100%

With `N=C(N)NCC(=O)Nc1cccc(-c2nc3cc(C(=O)Nc4ccc(N(CCCl)CCCl)cc4)ccc3[nH]2)c1` [Compound 2001, 1H-2-[3-(guanidinoacetylamino)phenyl]benzimidazole-5-[N-[4-[N,N-bis(2-chloroethyl)amino)phenyl]]carboxyamide dihydrochloride] the T/C was 13%.

Tested on: poly d(A-T)-d(A-T)
Test: Linkage to DNA, Tm value comparison with and without compound (Test Example 1)
Format: binding
Conditions: poly d(A-T)-d(A-T) in buffer; difference from Tm of the DNA alone
Procedure: Investigation was made on the linkage of each compound to DNA. The test was carried out by comparing a Tm value in the case that the compound was added to the DNA solution with a Tm value in the case that no compound was added thereto.
That is to say, poly d(A-T)-d(A-T) was used as the DNA. This DNA was dissolved in a buffer solution and the compound was further added thereto, and the Tm value was then measured. On the other hand, the Tm of the DNA alone was measured, and a difference (ΔTm) was then calculated. For the measurement, a U-3200 model spectrophotometer made by Hitachi, Ltd. was used, and for the control of temperature, SPR-10 model made by Hitachi, Ltd. was used.

`N=C(N)NCC(=O)Nc1cccc(-c2nc3cc(C(=O)Nc4ccc(N(CCCl)CCCl)cc4)ccc3[nH]2)c1` [Compound 2001, 1H-2-[3-(guanidinoacetylamino)phenyl]benzimidazole-5-[N-[4-[N,N-bis(2-chloroethyl)amino)phenyl]]carboxyamide dihydrochloride] gave a ΔTm of 14 °C.

— US5821258A, “Phenylbenzimidazole derivatives” (priority 1994, dated 1998)
